Experimental data from publication PMC4180036 (Clinical pharmacology and therapeutics, 2014).
Several values for one entry are separate records, joined by “and”; a condition that tells them apart may be missing. Identical values can stand only once. Like-named read-outs stand apart in the source and are kept apart here.

How the values were obtained:
[1] = tested on: African Americans with NSCLC; assay: Treatment-related toxicities; type: in vivo, human; conditions: for Dermatologic, other than rash: Any, grade 1–3: erythema, hyperpigmentation, pruritus, xerodermia; for Nausea, grade 1–3: only one grade three nausea was recorded
NSCLC = assay: Efficacy: disease control rate at 3 months; type: in vivo, human
[2] = Population pharmacokinetic modeling and covariate analysis; type: in vivo, human; conditions: for IIV V1, inter-individual variability on volume of distribution / IIVCL, inter-individual variability on clearance / IOV CL, inter-occasion variability on clearance: expressed as variance; for θKa, first-order absorption rate constant: fixed value; for clearance / Vd: human, plasma, oral; for Vd: θV1, volume of distribution
[3] = human, in vivo
[4] = other studies; cited from earlier work
NSCLC patients = conditions: 150 mg erlotinib, cited from earlier work
clinical = conditions: human, in vivo
[5] = Base model (n=26), Bootstrap median (95% CI)
[6] = Base model (n=26), Estimate (CV %)
[7] = Covariate model (LBM, n=26), Bootstrap median (95% CI)
[8] = Covariate model (LBM, n=26), Estimate (CV %)

## C#Cc1cccc(Nc2ncnc3cc(OCCOC)c(OCCOC)cc23)c1 [erlotinib]
[1]; All, n=55
  AST elevation: 4 (7) no. of pts (%)
  Anorexia, grade 1–2: 14 (25) no. of pts (%)
  Anorexia, grade 3: 3 (5) no. of pts (%)
  Any grade 3+ toxicity: 11 (20) no. of pts (%)
  Any grade 4/5 toxicity: 1 (2) no. of pts (%)
  Dehydration, grade 1–2: 1 (2) no. of pts (%)
  Dehydration, grade 3: 2 (4) no. of pts (%)
  Diarrhea: Any grade: 16 (29) no. of pts (%)
  Diarrhea: Grade 1: 14 (25) no. of pts (%)
  Diarrhea: Grade 2: 2 (4) no. of pts (%)
  Diarrhea: Grade 3+: 0 no. of pts (%)
  Hyperbilirubinemia: 1 (2) no. of pts (%)
  Pneumonitis, grade 3: 1 (2) no. of pts (%)
  Rash, maximum grade: Any grade: 38 (69) no. of pts (%)
  Rash, maximum grade: Grade 1: 22 (40) no. of pts (%)
  Rash, maximum grade: Grade 2: 12 (22) no. of pts (%)
  Rash, maximum grade: Grade 3: 4 (7) no. of pts (%)
  Xerostomia: 2 (4) no. of pts (%)
  Dermatologic, other than rash: Any, grade 1–3: 16 (29) no. of pts (%)
  Nausea, grade 1–3: 8 (15) no. of pts (%)
[1]; Arm A (fixed dose), n=28
  AST elevation: 4 (14) no. of pts (%)
  Anorexia, grade 1–2: 5 (18) no. of pts (%)
  Anorexia, grade 3: 2 (7) no. of pts (%)
  Any grade 3+ toxicity: 5 (18) no. of pts (%)
  Any grade 4/5 toxicity: 1 (4) no. of pts (%)
  Dehydration, grade 1–2: 0 no. of pts (%)
  Dehydration, grade 3: 1 (4) no. of pts (%)
  Diarrhea: Any grade: 9 (32) no. of pts (%)
  Diarrhea: Grade 1: 7 (25) no. of pts (%)
  Diarrhea: Grade 2: 2 (7) no. of pts (%)
  Diarrhea: Grade 3+: 0 no. of pts (%)
  Hyperbilirubinemia: 0 no. of pts (%)
  Pneumonitis, grade 3: 1 (4) no. of pts (%)
  Rash, maximum grade: Any grade: 19 (68) no. of pts (%)
  Rash, maximum grade: Grade 1: 12 (43) no. of pts (%)
  Rash, maximum grade: Grade 2: 7 (25) no. of pts (%)
  Rash, maximum grade: Grade 3: 0 no. of pts (%)
  Xerostomia: 0 no. of pts (%)
  Dermatologic, other than rash: Any, grade 1–3: 7 (25) no. of pts (%)
  Nausea, grade 1–3: 2 (7) no. of pts (%)
[1]; Arm B (dose adjusted), n=27
  AST elevation: 0 no. of pts (%)
  Anorexia, grade 1–2: 9 (33) no. of pts (%)
  Anorexia, grade 3: 1 (4) no. of pts (%)
  Any grade 3+ toxicity: 6 (22) no. of pts (%)
  Any grade 4/5 toxicity: 0 no. of pts (%)
  Dehydration, grade 1–2: 1 (4) no. of pts (%)
  Dehydration, grade 3: 1 (4) no. of pts (%)
  Diarrhea: Any grade: 7 (26) no. of pts (%)
  Diarrhea: Grade 1: 7 (26) no. of pts (%)
  Diarrhea: Grade 2: 0 no. of pts (%)
  Diarrhea: Grade 3+: 0 no. of pts (%)
  Hyperbilirubinemia: 1 (4) no. of pts (%)
  Pneumonitis, grade 3: 0 no. of pts (%)
  Rash, maximum grade: Any grade: 19 (70) no. of pts (%)
  Rash, maximum grade: Grade 1: 10 (37) no. of pts (%)
  Rash, maximum grade: Grade 2: 5 (19) no. of pts (%)
  Rash, maximum grade: Grade 3: 4 (15) no. of pts (%)
  Xerostomia: 2 (7) no. of pts (%)
  Dermatologic, other than rash: Any, grade 1–3: 9 (33) no. of pts (%)
  Nausea, grade 1–3: 6 (22) no. of pts (%)
[1]; Arm B, of the 27 enrolled patients
  patients who experienced rash during the first cycle: 18 patients
[1]; all 55 treated patients
  diarrhea, % of patients: 29%
  dose reductions for toxicity: no dose reductions for toxicity
  nausea, % of patients: 15%
[1]; all 55 treated patients (11 patients)
  patients who experienced any grade 3 toxicity: 20%
NSCLC; All, n=52 evaluable patients
  PD: 40 (78) Number of patients (%)
  PR: 1 (2) Number of patients (%)
NSCLC; All, n=55 treated patients
  1 year progression free rate: 7%
  1 year survival rate: 28%
  Survival, Median: 5.3 months
  Survival, Range: 0.9–42.8 months
  TTP, Median (95% CI): 2.6 (1.9– 2.8) months
  TTP, Range: 0.3–20.2 months
NSCLC; Arm A, n=26 evaluable patients
  DCR at 3 months: 6 (23) Number of patients (%)
  PD: 20 (77) Number of patients (%)
  PR: 1 (4) Number of patients (%)
NSCLC; Arm A, n=28
  1 year progression free rate: 10%
  1 year survival rate: 30%
  Survival, Median: 5.3 months
  Survival, Range: 0.9–37.4 months
  TTP, Median (95% CI): 2.8 (2.5–3.1) months
  TTP, Range: 0.6–14.4 months
NSCLC; Arm B, n=26 evaluable patients
  DCR at 3 months: 6 (23) Number of patients (%)
  PD: 20 (77) Number of patients (%)
  PR: 0 Number of patients (%)
NSCLC; Arm B, n=27
  1 year progression free rate: 4%
  1 year survival rate: 26%
  Survival, Median: 5.2 months
  Survival, Range: 1.3–42.8 months
  TTP, Median (95% CI): 2.4 (1.5–2.7) months
  TTP, Range: 0.3–20.2 months
[2]; [5]
  θFM (fraction of erlotinib converted to OSI-420, FMET=1/1+exp(FM)): 1.22 (0.47, 3.33)
  IIV V1, inter-individual variability on volume of distribution: 0.90 (0.40, 1.33)
  IIVCL, inter-individual variability on clearance: 0.24 (0.005, 0.44)
  IOV CL, inter-occasion variability on clearance: 0.58 (0.29, 0.89)
[2]; [6]
  θFM (fraction of erlotinib converted to OSI-420, FMET=1/1+exp(FM)): 1.41 (12.8)
  IIV V1, inter-individual variability on volume of distribution: 0.92 (50.5)
  IIVCL, inter-individual variability on clearance: 0.06 (80.8)
  IOV CL, inter-occasion variability on clearance: 0.38 (55.5)
[2]; Base model (n=26)
  θKa, first-order absorption rate constant: 1.04 h⁻¹
[2]; [7]
  θFM (fraction of erlotinib converted to OSI-420, FMET=1/1+exp(FM)): 1.03 (0.23, 3.49)
  θLBM, lean body mass covariate term: 1.75 (0.69, 3.08)
  IIV V1, inter-individual variability on volume of distribution: 0.92 (0.43, 1.37)
  IIVCL, inter-individual variability on clearance: 0.13 and 0.13 (0.001, 0.35)
  IOV CL, inter-occasion variability on clearance: 0.51 (0.15, 0.85)
[2]; [8]
  θFM (fraction of erlotinib converted to OSI-420, FMET=1/1+exp(FM)): 0.88 (26.4)
  θLBM, lean body mass covariate term: 1.71 (27.8)
  IIV V1, inter-individual variability on volume of distribution: 0.95 (50.7)
  IIVCL, inter-individual variability on clearance: 0.02 (127.1)
  IOV CL, inter-occasion variability on clearance: 0.30 (67.9)
[2]; Covariate model (LBM, n=26)
  θKa, first-order absorption rate constant: 1.04 h⁻¹
[2]; both, θCL, erlotinib clearance, Base model (n=26), Bootstrap median (95% CI)
  clearance: 104 mL/min
[2]; both, θCL, erlotinib clearance, Base model (n=26), Estimate (CV %)
  clearance: 104 mL/min
[2]; both, θCL, erlotinib clearance, Covariate model (LBM, n=26), Bootstrap median (95% CI)
  clearance: 106 mL/min
[2]; both, θCL, erlotinib clearance, Covariate model (LBM, n=26), Estimate (CV %)
  clearance: 107 mL/min
[2]; both, Base model (n=26), Bootstrap median (95% CI)
  Vd: 275 L
[2]; both, Base model (n=26), Estimate (CV %)
  Vd: 284 L
[2]; both, Covariate model (LBM, n=26), Estimate (CV %)
  Vd: 283 L
[2]; estimated erlotinib clearance from nonlinear mixed-effects modeling, this study
  clearance: 104 mL/min
[3]
  AUC0–24: 17400 ± 8900 ng·h/mL
  Tmax: 2.5 (0–10) hrs
[4]
  range of population estimates for CL/F: 3.29 to 5.82 L/h
NSCLC patients; 81 Caucasian NSCLC patients
  dose reductions due to adverse events: 14%
NSCLC patients; 1242 Asian NSCLC patients
  dose reductions due to adverse events: 23%
clinical; AUC0–24
  AUC(0-t): 12200 ± 6200 ng·h/mL
clinical; Tmax
  Tmax: 5 h
